Paper PMC4718634, “Murine GPRC6A Mediates Cellular Responses to L-Amino Acids, but Not Osteocalcin Variants” (PLoS ONE, 2016)
Entries after “also recorded” stand apart in the source; their conditions may differ.

Legend:
mGPRC6A (mouse GPRC6A) [1] = target: T1, mGPRC6A (mouse GPRC6A) (Mus musculus, UniProt Q8K4Z6); experiment: Cyclic AMP accumulation, FlpIn-TREx-HEK293-mGPRC6A cells; type: cell-based
T1 sequence (Q8K4Z6 21-928): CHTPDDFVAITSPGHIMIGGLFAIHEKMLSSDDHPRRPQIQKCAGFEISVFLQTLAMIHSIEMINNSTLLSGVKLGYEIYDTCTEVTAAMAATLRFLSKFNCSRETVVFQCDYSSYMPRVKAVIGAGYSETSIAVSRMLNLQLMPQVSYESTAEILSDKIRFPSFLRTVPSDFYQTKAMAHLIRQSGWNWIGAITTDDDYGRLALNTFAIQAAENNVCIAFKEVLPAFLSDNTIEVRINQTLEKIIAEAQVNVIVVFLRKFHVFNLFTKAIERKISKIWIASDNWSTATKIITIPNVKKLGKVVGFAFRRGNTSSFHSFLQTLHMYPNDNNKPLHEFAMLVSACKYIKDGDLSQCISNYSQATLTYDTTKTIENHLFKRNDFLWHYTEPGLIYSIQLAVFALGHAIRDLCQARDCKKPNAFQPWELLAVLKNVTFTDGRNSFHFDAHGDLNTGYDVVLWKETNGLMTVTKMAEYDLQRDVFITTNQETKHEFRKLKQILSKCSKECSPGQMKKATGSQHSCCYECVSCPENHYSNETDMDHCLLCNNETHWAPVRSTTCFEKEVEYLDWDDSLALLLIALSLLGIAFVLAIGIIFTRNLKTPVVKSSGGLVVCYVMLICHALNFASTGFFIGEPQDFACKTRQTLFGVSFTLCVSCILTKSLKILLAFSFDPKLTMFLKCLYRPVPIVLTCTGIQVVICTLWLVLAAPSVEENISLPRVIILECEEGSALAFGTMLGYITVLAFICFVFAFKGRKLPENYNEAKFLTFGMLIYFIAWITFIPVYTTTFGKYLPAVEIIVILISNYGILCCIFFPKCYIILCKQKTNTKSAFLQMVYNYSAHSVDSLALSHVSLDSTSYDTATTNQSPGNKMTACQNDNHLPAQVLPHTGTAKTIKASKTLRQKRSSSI
Method: pcDNA 5/FRT/TO constructs were isogenically integrated into a FlpIn-TREx-HEK293 cell line (Life Technologies). FlpIn-TREx-HEK293-mGPRC6A and FlpIn-TREx-HEK293-hGPRC6A cells were then selected using 600 μg/ml hygromycin and 5 μg/ml blasticidin and grown in culture medium consisting of Dulbecco’s Modified Eagle Medium (DMEM), supplemented with 10% (v/v) foetal bovine serum (FBS) at 37°C in 5% CO2 and were sub-cultured in a 1:3 ratio every 3–4 days. Cells were cultured overnight in the presence of 1 μg/ml tetracycline to induce GPRC6A expression. […] 48 h after transfection, cells were selected using 3 μg/ml puromycin and grown as above.
HEK293-mGPRC6A cells were seeded at a density of 10^5 cells per well into PDL-coated 96-well plates and incubated overnight in DMEM, supplemented with 10% FBS (v/v) at 37°C in 5% CO2. Cells were then incubated in 90 μl of stimulation buffer (HBSS containing 5 mM HEPES, 0.1% BSA (w/v), 0.5 mM IBMX; pH 7.4) for 30 min at 37°C. Test compounds (10 μl at 10 x final) were added and cells were incubated for an additional 30 min at 37°C. The medium was removed and cells were incubated in 50 μl of ice-cold 100% ethanol. Once evaporated, 100 μl of lysis buffer (5 mM HEPES, 0.1% BSA (w/v), 0.3% Tween-20; pH 7.4) was added to the cells and samples were stored at -20°C until further analysis. Samples were analysed using the Alphascreen® cAMP assay kit (Perkin Elmer) following manufacturer instructions. Briefly, 10 μl of lysates were added to a 384-well Optiplate. After addition of 5 μl of acceptor bead mix, plate was incubated at RT for 30 min followed by addition of 15 μl of donor bead mix. After overnight (16 h) incubation at RT, plates were read using the Envision plate reader.

mGPRC6A (mouse GPRC6A) [2] = target: T1, mGPRC6A (mouse GPRC6A); experiment: Label-free cell impedance (xCELLigence), tetracycline-induced FlpIn-TREx-HEK293-mGPRC6A cells; type: cell-based
Method: 2.5 x 10^7 FlpIn-TREx-HEK293-mGPRC6A cells were seeded in a T175 flask and incubated overnight at 37°C in 5% CO2. Cells were then transfected with 35 μg of plasmid DNA (GαqG66D) with Lipofectamine LTX according to manufacturer's instructions, then incubated for 24h at 37°C in 5% CO2. Prior to the experiment, a background reading for each E-plate 96 (Bio-Rad, CA, USA) was measured after addition of 100 μl DMEM + 10% FBS per well. Cells were recovered using Versene and seeded at a 10^5 cells/well density in 200 μl DMEM + 10% FBS (containing 1 μg/ml tetracycline where indicated). Cells were washed 2 x 2 h in HBSS buffer (pH 7.2) containing 20 mM HEPES, 1 mM CaCl2 and 0.1% BSA (w/v) in a total volume of 180 μl. Test compounds (20 μl at 10x final concentration) were added to the plate and cell impedance was monitored for 3 h. Cell index was normalised to the buffer response (minus the baseline response at zero time point).
Concentration-response data were analysed using a three or four parameter logistic function (Motulsky & Christopoulos, 2004) to generate estimates of agonist potency (LogEC50). Data for all HEK293 assays represent the mean ± SEM of at least three independent experiments (except cell impedance, n = 2). For GLP-1 release, the data represent mean ± SEM of three to five independent experiments (except for OCN, wash; n = 2). For insulin release assays, data represent the mean ± SEM of three independent experiments (except for islet studies; n = 2). Insulin release data were normalised to the response to vehicle in either low or high [glucose]. Statistical analysis for GLP-1 release data were performed by one-way ANOVA, followed by Sidak’s multiple comparisons test (treating wash / no wash datasets separately). Statistical analyses for insulin release data were performed by two-way ANOVA (with [glucose] and drug treatment as group variables), followed by Sidak’s multiple comparisons test. Where only high [glucose] groups were evaluated, statistical analysis was by one-way ANOVA followed by Sidak’s multiple comparisons test.

cAMP response (summary) (mGPRC6A (mouse GPRC6A) [1]; S1 Table)	xCELLigence response (summary) (mGPRC6A (mouse GPRC6A) [2]; S1 Table)	Compound	stimulation of cAMP accumulation (mGPRC6A (mouse GPRC6A) [1]; 30 min, 0.5 mM IBMX, Alphascreen, Fig 3A)	inhibition of forskolin-stimulated cAMP (mGPRC6A (mouse GPRC6A) [1]; forskolin 3 μM, Fig 3A)	EC50 (mGPRC6A (mouse GPRC6A) [2]; tetracycline-induced, GαqG66D, xCELLigence, n = 2, read-out: pEC50, cell impedance (converted))	cell impedance (cell index) response (mGPRC6A (mouse GPRC6A) [2]; tetracycline-induced, xCELLigence, Fig 4)
		NCCC[C@H](N)C(=O)O [L-ornithine]	no detectable modulation of cAMP accumulation	neither L-ornithine nor OCN variants inhibited cAMP levels stimulated by forskolin; also recorded: Neither L-ornithine nor OCN variants inhibit	63.1 µM	only mGPRC6A-expressing cells responded to L-ornithine; also recorded: increases cellular impedance only in tetracycline-induced cells
no response	No response	OCN: osteoblast-derived peptide, osteocalcin; variant not specified at the place (YLYQWLGAPVPYPDPLEPRREVCELNPDCDELADHIGFQEAYRRFYGPV; UniProt P02818 52-100, looked up)				
